Conditions: 283.15 K, Liquid, Vibrating tube method

CCCCCCCCCC [decane]
Conditions	mass density [kg/m3]
23237 kPa	753.1
23257 kPa	753.2
23291 kPa	753.1
23311 kPa	753.2
23338 kPa	753.1
23363 kPa	753.2
23386 kPa	753.2
23410 kPa	753.2
23441 kPa	753.2
23462 kPa	753.2
23489 kPa	753.3
23513 kPa	753.1
23530 kPa	753.2
23558 kPa	753.3
23590 kPa	753.3
23611 kPa	753.3
23638 kPa	753.3
23667 kPa	753.4
23689 kPa	753.3
23714 kPa	753.3
23743 kPa	753.4
23766 kPa	753.4
23786 kPa	753.5
23812 kPa	753.4
23835 kPa	753.5
23855 kPa	753.4
23875 kPa	753.4
23904 kPa	753.5
23928 kPa	753.5
23957 kPa	753.5
23977 kPa	753.6
24007 kPa	753.5
24024 kPa	753.6
24061 kPa	753.7
24135 kPa	753.6
24155 kPa	753.6
24179 kPa	753.7
24242 kPa	753.6
24265 kPa	753.7
24286 kPa	753.7
24309 kPa	753.7
24330 kPa	753.8
24362 kPa	753.7
24389 kPa	753.7
24410 kPa	753.7
24434 kPa	753.8
24452 kPa	753.9
24490 kPa	753.9
24511 kPa	753.7
24533 kPa	753.8
24564 kPa	753.9
24596 kPa	753.8
24618 kPa	753.9
24642 kPa	753.8
24660 kPa	753.9
24682 kPa	753.9
24710 kPa	754
24739 kPa	753.9
24764 kPa	753.9
24796 kPa	754
24819 kPa	754
24845 kPa	754.1
24871 kPa	754.1
24904 kPa	754.2
24924 kPa	754.1
24954 kPa	754.2
24981 kPa	754.1
25004 kPa	754.2
25025 kPa	754.1
25048 kPa	754
25068 kPa	754.2
25099 kPa	754.3
25121 kPa	754.2
25141 kPa	754.3
25168 kPa	754.2
25199 kPa	754.3
25220 kPa	754.3
25248 kPa	754.2
25268 kPa	754.3
25286 kPa	754.3
25313 kPa	754.2
25335 kPa	754.3
25366 kPa	754.4
25398 kPa	754.5
25416 kPa	754.3
25477 kPa	754.4
25498 kPa	754.4
25523 kPa	754.5
25544 kPa	754.5
25566 kPa	754.5
25591 kPa	754.5
25620 kPa	754.5
25645 kPa	754.5
25669 kPa	754.5
25695 kPa	754.6
25712 kPa	754.5
25739 kPa	754.7
25768 kPa	754.7
25788 kPa	754.7
25818 kPa	754.6
25845 kPa	754.4
25865 kPa	754.6
25888 kPa	754.7
25908 kPa	754.6
25939 kPa	754.7
25967 kPa	754.7
25992 kPa	754.7
26022 kPa	754.7
26046 kPa	754.8
26065 kPa	754.7
26099 kPa	754.8
26119 kPa	754.9
26136 kPa	754.7
26166 kPa	754.8
26197 kPa	754.7
26220 kPa	754.9
26245 kPa	754.8
26273 kPa	754.8
26300 kPa	754.8
26324 kPa	754.9
26341 kPa	755
26368 kPa	754.9
26389 kPa	755
26421 kPa	755
26445 kPa	755
26466 kPa	755
26490 kPa	755
26510 kPa	755.1
26538 kPa	755.1
26567 kPa	755.1
26591 kPa	755
26624 kPa	755.2
26652 kPa	755.2
26677 kPa	755.2
26694 kPa	755.2
26726 kPa	755.2
26754 kPa	755.3

Source: the NIST ThermoML archive (doi:10.1021/je800110r)
